Laboratory results reported in US12649734B2, “Bioavailable protein disulfide isomerase inhibitors” (THE CLEVELAND CLINIC FOUNDATION, priority 2020, dated 2026).

What was measured:
MM1.S cells = experiment: ER stress response and apoptosis markers by immunoblotting; assay type: cell-based, human; conditions: 3 μM, 4 h
Method: FIGS. 6A-6C provide graphs and images showing PDIA1 inhibition by CCF642 analogues induce acute endoplasmic reticulum (ER) stress response and lead to apoptosis. Multiple myeloma cells (MM1.S) were treated with 3 μM of CCF642, -34, -37, -39, -34-A, and Tunicamycin (as a control). The status of ER sensors (XBP-1S, IRE1α oligomerization, and induction of C/EBP homology protein (CHOP)) along with apoptosis markers (cleaved caspase 3 and PARP1) were monitored. (A) MM1.S cells were treated for 4 h with CCF642 and its indicated analogues. (B) MM1.S cells were treated with CCF642-34 in a time course. (C) MM1.S, MM1.S.luc, and BTZ-resistant MM1.S.luc cells were stained with the H2DCFDA ROS detection and then treated with 2.5 μM CCF642-34 up to 4 h.
Immunoblotting: Immunoblotting was performed as described previously (Dallas et al., Blood, 93, 1697-1706 (1999)) using primary antibodies against PDIA1 (Cat #3501), XBP1-S (Cat #12782); IRE1α (Cat #3294), C/EBP homologous protein (CHOP) (Cat #5554), Caspase-3 (Cat #9665), PARP1 (Cat #9542), and GAPDH (Cat #3683) purchased from Cell Signaling Technology, Inc. (Danvers, MA, USA) and used at 1:1000 dilution, unless mentioned otherwise.

[1] = system: myeloma cells (MM1.S, MM1.S.LUC, BTZ-resistant MM1.S.LUC); experiment: ROS detection (carboxy-H2DCFDA); assay type: cell-based, human; conditions: 2.5 μM, peaking between 2-3 h
Method: ROS detection: MM1.S, MM1.S.LUC, and BTZ-resistant MM1.S.LUC cells were washed with DPBS and treated with 5 μM carboxy-H2DCFDA (Molecular Probes) for 45 min at 37° C. The cells were then washed 3 times in DPBS and followed by 2.5 μM CCF642-34 treatment up to 4 h. After the incubation, the cells were washed 3 times and the intracellular ROS was quantified (excitation=493 nm; […]) using a BioTek Synergy plate reader (BioTek Instruments, Inc., Winooski, VT, USA).

PDIA1 = PDIA1 (Homo sapiens, UniProt P07237); experiment: PDIA1 activity assay, di-E-GSSG reduction (fluorescence); assay type: biochemical; set-up: His6 (6xHN, pET6xHN-N vector) (N); made in house; host or cells: Escherichia coli BL21 (DE3) NiCo; conditions: di-EGGS assay; read-out: inactivation constant, Kinact for PDIA1
Chain of PDIA1 (P07237 18-508): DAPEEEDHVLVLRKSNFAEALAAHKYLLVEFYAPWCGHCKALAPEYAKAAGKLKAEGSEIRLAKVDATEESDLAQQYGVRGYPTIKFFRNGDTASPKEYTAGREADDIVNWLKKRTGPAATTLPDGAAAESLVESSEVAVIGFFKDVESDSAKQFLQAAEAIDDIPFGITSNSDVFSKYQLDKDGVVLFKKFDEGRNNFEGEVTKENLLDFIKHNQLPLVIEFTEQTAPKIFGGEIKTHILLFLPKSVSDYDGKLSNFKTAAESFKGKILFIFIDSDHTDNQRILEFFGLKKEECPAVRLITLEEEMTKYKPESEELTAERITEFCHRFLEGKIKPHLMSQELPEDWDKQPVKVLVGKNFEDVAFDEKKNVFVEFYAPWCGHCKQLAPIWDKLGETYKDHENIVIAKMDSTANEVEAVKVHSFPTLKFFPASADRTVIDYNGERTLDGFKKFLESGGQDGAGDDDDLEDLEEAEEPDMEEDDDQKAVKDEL
Method: PDI activity: All PDI activity assays were performed using two different substrates, insulin and di-eosin-diglutathione (di-E-GSSG) as described earlier (Vatolin et al., Ibid) with brief modifications. PDIA1 (1 μM) was incubated for 1 h with varying concentrations of PDIA1 inhibitors 642 or 642-34 (0.1, 03, 1, 5, 10, or 20 μM) in 100 mM sodium phosphate pH 7.0, 2 mM EDTA, and 1% DMSO. Bovine insulin (100 μM) and DTT (1 mM) were added to initiate the reaction. Kinetic readings were taken every minute for 2 h at 650 nm absorbance using a BioTek Synergy plate reader (BioTek Instruments, Inc., Winooski, VT, USA). For highly sensitive fluorescence-based assays, di-E-GSSG as a pseudo substrate was utilized to access the activity of PDIA1. Raturi, A.; Mutus, B., Free. Radic. Biol. Med., 43, 62-70 (2007) Known concentrations of recombinant PDIA1 were mixed with 10 mM GSH and incubated at 37° C. for 30 min in 150 mM K2HPO4/KH2PO4 (pH 7.1) buffer solution. PDI inhibitor was added into the mixture and incubated for an additional 30 min at 37° C. […] Synergy H1 plate reader (BioTek, WI, USA) was used for kinetic analysis using excitation at 518 nm, emission at 545 nm, reads of 0.1 sec/well every minute at 25° C. for 1 h. Baseline fluorescence was determined from di-E-GSSG reactions without PDI and GSH. […]

NC(CC1CNc2ccccc21)C(=O)NCCCOc1ccc(N2C(=O)/C(=C/c3ccc([N+](=O)[O-])s3)SC2=S)cc1 (stereo not drawn) [CCF642-34]
ER stress response (induction of XBP-1S and CHOP) (MM1.S cells): induced a robust ER stress response
increase of reactive oxygen species (ROS) [1]: 4-6 fold
KI (inactivation) (PDIA1): 88 ± 2.8 nM
